Laboratory results from publication PMC10461224, “Development of an Affinity-Based Probe to Profile Endogenous Human Adenosine A3 Receptor Expression” (Journal of Medicinal Chemistry, 2023).
Marks after values point to notes of the source that are not given here.

Experiments:
hA3AR [1] = molecular target: T1, hA3AR (Homo sapiens, UniProt P0DMS8); assay: Wash-out assay, [3H]PSB-11 binding after washing; settings: 1 μM compound, pre-incubated 2 h at 25 °C, washed 4 times
T1 construct: expressed in transfected cells; host or cells: CHO cells (CHOhA3AR), gift of Prof; K.N. Klotz, University of Würzburg; used as membrane fractions or live cells
T1 sequence (P0DMS8 1-318): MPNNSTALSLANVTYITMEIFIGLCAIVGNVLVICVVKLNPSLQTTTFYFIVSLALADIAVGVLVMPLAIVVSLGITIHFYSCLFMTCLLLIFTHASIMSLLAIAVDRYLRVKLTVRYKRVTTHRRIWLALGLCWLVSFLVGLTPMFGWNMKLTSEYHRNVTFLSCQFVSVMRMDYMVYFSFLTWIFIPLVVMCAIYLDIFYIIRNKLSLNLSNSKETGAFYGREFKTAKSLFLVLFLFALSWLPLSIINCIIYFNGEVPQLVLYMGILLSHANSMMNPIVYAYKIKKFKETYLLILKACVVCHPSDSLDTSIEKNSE
Method: 200 μL assay buffer (50 mM Tris–HCl, pH 8.0, 10 mM MgCl2, 1 mM EDTA and 0.01% CHAPS), 100 μL assay buffer containing the competing ligand (final concentration: 1 μM), and 100 μL of CHOhA3AR membrane fractions (100 μg protein) were combined and pre-incubated for 2 h at 25 °C while shaking. The ‘4× washed’ samples were centrifuged (5 min, 13,000 rpm, 4 °C), and the supernatant was removed. The resulting pellet was dissolved in 1 mL of assay buffer and incubated for 10 min at 25 °C while shaking. The ‘4× washed’ samples were then again centrifuged (2 min, 13,000 rpm, 4 °C), the supernatant was removed, and the resulting pellet was dissolved in 1 mL of assay buffer. The latter washing steps were repeated two times (four times washing total), and the final pellet was dissolved in 300 μL assay buffer. The radioligand (10 nM [^3H]PSB-11) in 100 μL of assay buffer was added to all samples, and the samples were incubated at 25 °C for 1 h. Nonspecific binding was determined in the presence of 100 μM NECA. Incubations were terminated by addition of 1 mL of ice-cold washing buffer (50 mM Tris–HCl, pH 8.0, 10 mM MgCl2, 1 mM EDTA) and rapid vacuum filtration through prewetted 96-well GF/B filter plates using a Brandel harvester. Filters were subsequently washed 5 times with ice-cold wash buffer. The plates were dried under vacuum, and a MicroscintTM-20 cocktail (PerkinElmer) was added subsequently. After 3 h, the filter-bound radioactivity was determined using a 2450 MicroBeta Microplate Counter (PerkinElmer).

hA2BAR = molecular target: hA2BAR; parameters: method as in PMID 35395239; settings: taken from previous experiments ref 71; read-out: KD at CHO-spap-hA2BAR membranes; cited from earlier work
hA1AR = molecular target: T2, hA1AR (Homo sapiens, UniProt P30542); assay: Full curve displacement assays on the hA1AR; assay type: binding; settings: from full curve displacement assays (Table S1)
T2 construct: expressed in transfected cells; host or cells: CHO cells (CHOhA1AR), gift of Prof; S.J. Hill, University of Nottingham; membrane fractions
T2 sequence (P30542 1-326): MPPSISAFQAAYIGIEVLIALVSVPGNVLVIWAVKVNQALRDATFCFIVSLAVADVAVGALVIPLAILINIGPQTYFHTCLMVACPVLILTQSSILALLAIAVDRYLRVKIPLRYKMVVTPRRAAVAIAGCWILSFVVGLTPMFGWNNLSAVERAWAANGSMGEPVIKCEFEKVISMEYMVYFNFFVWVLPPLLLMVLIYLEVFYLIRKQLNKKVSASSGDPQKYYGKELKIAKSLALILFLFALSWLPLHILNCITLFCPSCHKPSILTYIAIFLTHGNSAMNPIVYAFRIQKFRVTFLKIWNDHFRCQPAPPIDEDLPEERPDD
Method: The affinity of the synthesized AfBPs was determined in radioligand binding experiments. First, single concentration displacement assays were carried out on all four human adenosine receptors, using a final probe concentration of 1 μM (Table 1). […] This quick screen indicated a good selectivity toward the hA3AR over the other human ARs, a trend that was also observed in the case of the parent compound.[34] Next, the ‘apparent’ affinities (depicted as pKi values) toward the hA3AR were determined using full curve displacement assays. To study the presumable covalent mode of action, the apparent affinity was determined with (pre-4 h) and without (pre-0 h) 4 h of pre-incubation of AfBP with hA3AR, prior to addition of radioligand. […] This difference in affinity was reflected in a shift in apparent pKi. […] To further investigate selectivity toward the hA3AR over the hA1AR, full curve displacement assays were carried out on the hA1AR.
(§1) […]. Single point displacement values shown are mean percentages of two individual experiments performed in duplicate. All pKi values shown are mean values ± SEM of three individual experiments performed in duplicate. Statistical analysis was performed using a one-way ANOVA test with multiple comparisons (****p < 0.0001).

human A1AR (hA1AR) = molecular target: T3, human A1AR (hA1AR) (Homo sapiens, UniProt P30542); assay: Single-point radioligand displacement, [3H]DPCPX; assay type: binding; settings: 1 μM probe; CHO cell membranes; co-incubated with radioligand 30 min at 25 °C; mean of two experiments
T3 construct: expressed in transfected cells; host or cells: CHO cells (CHOhA1AR), gift of Prof; S.J. Hill, University of Nottingham; membrane fractions
T3 sequence (P30542 1-326): T2 sequence (P30542 1-326)
Method: (§2) Membrane aliquots containing 15 μg (CHOhA3AR), 5 μg (CHOhA1AR), or 30 μg (HEK293hA2AAR and CHO-spap-A2BAR) of protein were resuspended in assay buffer (A3AR: 50 mM Tris–HCl, pH 8.0, 10 mM MgCl2, 1 mM EDTA, 0.01% CHAPS; A1AR and A2AAR: 50 mM Tris–HCl, pH 7.4; A2BAR: 50 mM Tris–HCl, pH 7.4, 0.1% CHAPS). […] Nonspecific binding was determined in the presence of 100 μM NECA (A3AR), 100 μM CPA (A1AR), 100 μM NECA (A2AAR), and 10 μM ZM241385 (A2BAR). Incubations were terminated by rapid vacuum filtration to separate the bound and free radioligand through prewetted 96-well GF/C filter plates using a PerkinElmer Filtermate harvester. Filters were subsequently washed 12 times with ice-cold wash buffer (A3AR: 50 mM Tris–HCl, pH 8.0, 10 mM MgCl2, 1 mM EDTA; A1AR and A2AAR: 50 mM Tris–HCl, pH 7.4; A2BAR: 50 mM Tris–HCl, pH 7.4, 0.1% BSA). The plates were dried at 55 °C, and MicroscintTM-20 cocktail (PerkinElmer) was added subsequently.
(§3) Single point displacement values shown are mean percentages of two individual experiments performed in duplicate. All pKi values shown are mean values ± SEM of three individual experiments performed in duplicate.

human A2AAR (hA2AAR) = molecular target: T4, human A2AAR (hA2AAR) (Homo sapiens, UniProt P29274); assay: Single-point radioligand displacement, [3H]ZM241385; assay type: binding; settings: 1 μM probe; HEK293 cell membranes; co-incubated with radioligand 30 min at 25 °C; mean of two experiments
T4 construct: expressed in transfected cells; host or cells: HEK293 cells (HEKhA2AAR), gift of Dr. J. Wang, Biogen; membrane fractions
Method: as §2, §3

human A2BAR (hA2BAR) = molecular target: T5, human A2BAR (hA2BAR) (Homo sapiens, UniProt P29275); assay: Single-point radioligand displacement, [3H]PSB-603; assay type: binding; settings: 1 μM probe; CHO-spap cell membranes; co-incubated with radioligand 30 min at 25 °C; mean of two experiments
T5 construct: expressed in transfected cells; host or cells: CHO-spap cells (CHO-spap-hA2BAR), gift of S.J. Dowell, GlaxoSmithKline; membrane fractions
T5 sequence (P29275 1-332): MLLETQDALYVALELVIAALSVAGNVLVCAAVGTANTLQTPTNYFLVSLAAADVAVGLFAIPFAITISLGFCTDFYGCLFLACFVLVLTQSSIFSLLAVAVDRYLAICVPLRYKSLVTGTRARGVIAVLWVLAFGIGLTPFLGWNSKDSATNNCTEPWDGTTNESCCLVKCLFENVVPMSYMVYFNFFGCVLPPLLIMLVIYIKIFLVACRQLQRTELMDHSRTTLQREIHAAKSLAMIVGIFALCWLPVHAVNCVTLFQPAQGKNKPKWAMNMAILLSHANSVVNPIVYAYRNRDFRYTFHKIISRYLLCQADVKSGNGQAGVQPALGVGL
Method: as §2, §3

hA3AR [2] = molecular target: T1, hA3AR; assay: Single-point radioligand displacement, [3H]PSB-11; assay type: binding; settings: 1 μM probe; CHO cell membranes; co-incubated with radioligand 30 min at 25 °C; mean of two experiments
Method: as §2, §3

hA3AR [3] = molecular target: T1, hA3AR; assay: Full curve radioligand displacement assay on the adenosine A3 receptor, [3H]PSB-11; assay type: binding; settings: mean ± SEM, n=3
Method: Membrane aliquots containing 15 μg of protein (CHOhA3AR) were resuspended in assay buffer (50 mM Tris–HCl, pH 8.0, 10 mM MgCl2, 1 mM EDTA, 0.01% CHAPS). The competing ligand (concentrations ranging from 0.1 to 1000 nM) was added and pre-incubated with the membrane fractions for either 0 or 4 h. The radioligand (10 nM [^3H]PSB-11) was then added and incubated with the samples in a total volume of 100 μL of assay buffer for 30 min at 25 °C. Nonspecific binding was determined in the presence of 100 μM NECA. Incubations were terminated by rapid vacuum filtration through prewetted 96-well GF/C filter plates using a PerkinElmer Filtermate harvester. Filters were subsequently washed 12 times with ice-cold wash buffer (50 mM Tris–HCl, pH 8.0, 10 mM MgCl2, 1 mM EDTA). The plates were dried at 55 °C, and MicroscintTM-20 cocktail (PerkinElmer) was added subsequently. After 3 h, the filter-bound radioactivity was determined using a Tri-Carb 2810TR Liquid Scintillation Analyzer (PerkinElmer).
as §1

T4 sequence (P29274 whole entry): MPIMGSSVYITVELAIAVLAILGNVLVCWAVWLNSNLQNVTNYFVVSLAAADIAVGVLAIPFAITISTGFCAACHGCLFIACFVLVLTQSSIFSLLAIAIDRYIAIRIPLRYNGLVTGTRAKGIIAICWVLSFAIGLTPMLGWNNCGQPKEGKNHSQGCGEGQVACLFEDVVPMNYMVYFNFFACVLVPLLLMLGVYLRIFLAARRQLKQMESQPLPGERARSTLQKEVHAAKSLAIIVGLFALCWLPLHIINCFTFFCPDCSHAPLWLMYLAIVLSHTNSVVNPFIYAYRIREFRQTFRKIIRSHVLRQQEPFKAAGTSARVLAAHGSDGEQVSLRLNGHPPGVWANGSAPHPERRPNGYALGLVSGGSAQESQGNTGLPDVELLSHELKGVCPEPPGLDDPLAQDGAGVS

CCCn1c(=O)c2c(nc3cc(OC)ccn32)n(CCCNC(=O)c2ccc(S(C)(=O)=O)cc2)c1=O [LUF7714, reference compound]
binding to hA3AR after wash-out ([3H]PSB-11 binding recovery) (hA3AR [1]): full recovery of radioligand binding

CCCn1c(=O)[nH]c2nc(-c3ccc(S(=O)(=O)N4CCN(c5ccc(Cl)cc5)CC4)cc3)[nH]c2c1=O [[^3H]PSB603]
Kd (hA2BAR): 1.7 nM

COc1ccn2c(c1)nc1c2c(=O)[nH]c(=O)n1CCCNC(=O)OC(C)(C)C [compound 11, tert-Butyl-(3-(8-methoxy-2,4-dioxo-3,4-dihydropyrido[2,1-f]purin-1(2H)-yl)propyl)carbamate]
selectivity toward the hA3AR over the hA1AR (hA1AR): > 7 fold

C#CCn1c(=O)c2c(nc3cc(OC)ccn32)n(CCCNC(=O)c2ccc(S(=O)(=O)F)cc2)c1=O [compound 13, 4-((3-(8-Methoxy-2,4-dioxo-3-(prop-2-yn-1-yl)-3,4-dihydropyrido[2,1-f]purin-1(2H)-yl)propyl)carbamoyl)benzenesulfonyl fluoride]
% specific [3H]DPCPX displacement, hA1AR (human A1AR (hA1AR)): 25%
% specific [3H]ZM241385 displacement, hA2AAR (human A2AAR (hA2AAR)): 8%
% specific [3H]PSB-603 displacement, hA2BAR (human A2BAR (hA2BAR)): 5%
% specific [3H]PSB-11 displacement, hA3AR (hA3AR [2]): 92%
apparent pKi (pre-0 h) (hA3AR [3]; CHO-hA3AR membranes, 25 °C, 0.5 h co-incubation of probe and radioligand, no pre-incubation): 7.17 ± 0.04
apparent pKi (pre-4 h) (hA3AR [3]; CHO-hA3AR membranes, 25 °C, 4 h pre-incubation with probe then 0.5 h co-incubation with radioligand): 8.38 ± 0.05 ^d
fold change, ratio Ki(0 h)/Ki(4 h) (hA3AR [3]; hA3AR): 16.6 ± 3.5
binding to hA3AR after wash-out ([3H]PSB-11 binding recovery) (hA3AR [1]): persistent binding
